These results are taken from patent publication US6376518B1, “Acyl derivatives of 4-demethylpenclomedine, use thereof and preparation thereof” (Southern Research Institute, priority 1999, dated 2002).

Assay [1] deals with human MX-1 mammary tumor. Put plainly: In vivo antitumor activity vs s.c.-implanted human MX-1 mammary tumor xenograft in athymic mice. The settings on record: sc MX-1, Days 12-16. A general note: Xenograft models place foreign cells or tissue in a host animal.
The subject of assay [2] is P388/0 leukemia. The settings on record: P388/0, Q1D × 1 (1); for MEDIAN DAY OF DEATH: dying mice only.
Assay [3] has as its system P388/BCNU leukemia. Nature of the assay: Antitumor activity against IP-implanted P388/BCNU leukemia in mice. The settings on record: P388/BCNU, Q1D × 1 (1); for MEDIAN DAY OF DEATH: dying mice only.
Assay [4] relates to human MX-1 mammary tumor. Put plainly: In vivo antitumor activity vs i.c.-implanted human MX-1 mammary tumor xenograft in athymic mice. The settings on record: ic MX-1; for Median % ILS (dying mice only) / Tumor-Free-Surv/Total: Days 1-5.
Assay [5] has as its system P388/CPA leukemia. Nature of the assay: Antitumor activity against IP-implanted P388/CPA leukemia in mice. The settings on record: P388/CPA, Q1D × 1 (1); for MEDIAN DAY OF DEATH: dying mice only. The class given is in vivo, murine.

Structures are written as SMILES. Like-named read-outs stand apart in the source and are kept apart here.

As for `COc1nc(C(Cl)(Cl)Cl)c(Cl)c(OC(=O)CBr)c1Cl` [DM-BA-PEN], in assay [1] (IP 135 mg/kg/dose), the T-C is more than 41.0 days and the Tumor-Free-Surv/Total is listed as 2/5.
Turning to `O=NN(CCCl)C(=O)NCCCl` [BCNU (carmustine), carmustine], the “50-DAY SURV/TOTAL” value in assay [2] (IP 20.0 mg/kg/dose) was 3/6; in assay [2] (IP 30.0 mg/kg/dose), 6/6; in assay [3] (IP 20.0 mg/kg/dose), 0/6; in assay [3] (IP 30.0 mg/kg/dose), 0/6. For the same compound, the “APPROX. NET LOG10 CHANGE IN TUMOR BURDEN AT END OF Rx” value in assay [2] (IP 20.0 mg/kg/dose) was “ca −8.8”; in assay [3] (IP 20.0 mg/kg/dose) it was 0; in assay [3] (IP 30.0 mg/kg/dose), “+0.4”. The “MEDIAN DAY OF DEATH” value in assay [2] (IP 20.0 mg/kg/dose) worked out at 27.0; in assay [3] (IP 20.0 mg/kg/dose) it was 9.0; in assay [3] (IP 30.0 mg/kg/dose), 8.5. The “% ILS” value in assay [3] (IP 20.0 mg/kg/dose) is on record as 0%; in assay [3] (IP 30.0 mg/kg/dose), −6%.
With `COc1nc(C(Cl)(Cl)Cl)c(Cl)c(OC(=O)Cc2cccs2)c1Cl` [DM-TA-PEN], the “Median % ILS (dying mice only)” value in assay [4] (IP 90 mg/kg/dose) is recorded as “+75%”. Besides, the Tumor-Free-Surv/Total in assay [1] (IP 90 mg/kg/dose) is 3/5.
Regarding `O=P1(N(CCCl)CCCl)NCCCO1` (centres unmarked) [CPA (cyclophosphamide), cyclophosphamide], in assay [2] (IP 175.0 mg/kg/dose), the “50-DAY SURV/TOTAL” value is 1/6, the “APPROX. NET LOG10 CHANGE IN TUMOR BURDEN AT END OF Rx” value is “ca −8.8” and the “MEDIAN DAY OF DEATH” value came out at 30.0. In addition, in assay [2] (IP 265.0 mg/kg/dose), the “50-DAY SURV/TOTAL” value is recorded as 6/6. Besides, in assay [5] (IP 175.0 mg/kg/dose), the “50-DAY SURV/TOTAL” value is given as 0/6, the “% ILS” value was “+9%”, the “APPROX. NET LOG10 CHANGE IN TUMOR BURDEN AT END OF Rx” value is −0.6 and the “MEDIAN DAY OF DEATH” value came out at 12.0. For the same compound, in assay [5] (IP 265.0 mg/kg/dose), the “50-DAY SURV/TOTAL” value is on record as 0/6, the “% ILS” value is recorded as “+27%”, the “APPROX. NET LOG10 CHANGE IN TUMOR BURDEN AT END OF Rx” value was −1.7 and the “MEDIAN DAY OF DEATH” value amounted to 14.0.
Regarding `COCC(=O)Oc1c(Cl)c(OC)nc(C(Cl)(Cl)Cl)c1Cl` [DM-MA-PEN], the “activity against i.c.-implanted tumor in comparison to PEN and DM-PEN (in words)” value in assay [4] is listed as “significant activity”. Also, the Tumor-Free-Surv/Total in assay [4] (IP 90 mg/kg/dose) is 1/5. For the same compound, the Survivors in assay [4] (optimal doses (LD10 or less), schedule QD1-5, administered LP.) is recorded as 1/5. Besides, in assay [4] (oral (gavage) 90 mg/kg/dose), the “Median % ILS (dying mice only)” value was “+110%” and the Tumor-Free-Surv/Total is listed as 1/5. In assay [1] (oral (gavage) 135 mg/kg/dose), the T-C is reported as more than 41.0 days and the Tumor-Free-Surv/Total is given as 5/5.
Turning to `COc1nc(C(Cl)(Cl)Cl)c(Cl)c(OC(=O)c2ccc([N+](=O)[O-])cc2)c1Cl` [DM-NB-PEN], in assay [1] (IP 135 mg/kg/dose), the Tumor-Free-Surv/Total is on record as 5/5.
Consider `COc1nc(C(Cl)(Cl)Cl)c(Cl)c(OC(=O)c2c(Cl)cc(Cl)cc2Cl)c1Cl` [DM-TCB-PEN], for which, in assay [4] (IP 135 mg/kg/dose), the “Median % ILS (dying mice only)” value is “+92%” and the Tumor-Free-Surv/Total is 1/5.
